Experimental data taken from ChEMBL document CHEMBL1126332 (Bioorg Med Chem Lett, 1992).
Activity calls are given as the source filed them. The calls are words filed in the database; no cut-off is given here.

Key:
[1] = biological target: T1, Polyunsaturated fatty acid 5-lipoxygenase (Homo sapiens, UniProt P09917); assay: Inhibition of [14C]arachidonic acid conversion to 5-HETE by broken cell 5-LO isolated from guinea pig PMN; not active at the highest concentration (3 ug/mL) tested; No activity; type: functional, Cavia porcellus; details: target entry is the homologue from another species
T1 sequence (P09917 whole entry): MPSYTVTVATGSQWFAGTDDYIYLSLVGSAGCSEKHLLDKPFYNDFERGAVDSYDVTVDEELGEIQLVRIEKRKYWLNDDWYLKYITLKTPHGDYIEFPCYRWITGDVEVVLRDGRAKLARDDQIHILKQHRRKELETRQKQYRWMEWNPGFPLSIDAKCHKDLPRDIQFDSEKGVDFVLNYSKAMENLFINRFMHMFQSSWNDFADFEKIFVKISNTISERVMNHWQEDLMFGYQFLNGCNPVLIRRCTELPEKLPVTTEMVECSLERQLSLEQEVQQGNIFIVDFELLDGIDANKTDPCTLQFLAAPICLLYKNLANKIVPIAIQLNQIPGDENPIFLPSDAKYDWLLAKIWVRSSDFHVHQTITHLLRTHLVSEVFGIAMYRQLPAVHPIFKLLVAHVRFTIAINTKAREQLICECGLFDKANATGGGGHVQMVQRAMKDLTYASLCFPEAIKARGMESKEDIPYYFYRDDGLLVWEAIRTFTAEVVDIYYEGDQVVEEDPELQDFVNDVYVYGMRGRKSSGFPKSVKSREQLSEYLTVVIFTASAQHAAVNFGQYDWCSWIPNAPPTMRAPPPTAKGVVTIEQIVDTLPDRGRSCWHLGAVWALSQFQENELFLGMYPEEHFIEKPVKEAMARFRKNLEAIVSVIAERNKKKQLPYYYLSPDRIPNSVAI

[2] = species: Oryctolagus cuniculus; assay: The ability to inhibit iron-dependent lipid peroxidation of rabbit brain homogenate; not active at the highest concentration (30 ug/mL) tested; No activity; type: functional

CC1=NN(CCOc2ccc3ccccc3c2)C(=O)C1(C)C
IC50 [1]: Not Active
MIC [2]: inactive
